Assay results reported in US20230357419A1, “METHODS FOR TREATING OR […] DISORDERS” (priority 2022, published 2023).

Assays:
[1] = tested on: mice; conditions: intrathecal, 3 μg; cited from earlier work
[2] = tested on: C57BL/6J mice; assay: Repeated nitroglycerin (NTG) administration-induced behavioral sensitization: facial mechanical thresholds (von Frey), hyperalgesic priming, facial pain score; type: in vivo, mouse; conditions: female C57BL/6J
Procedure: Repeated nitroglycerin (NTG) administration-induced behavioral sensitization: To model chronic migraine headache, mice received repetitive intraperitoneal (i.p.) injections of nitric oxide (NO) donor NTG (10 mg/kg and 10 ml/kg in saline with 1% propylene glycol) once every 2 days for 5 times as described previously. The control mice received vehicle (saline with 1% propylene glycol, 10 ml/kg) injections every 2 days. Facial mechanical thresholds were measured at baseline and two days after each injection (before the next treatment). After the facial mechanical threshold returned to the baseline level, mice received daily i.p. injections of low-dose NTG (0.1 mg/kg). Facial mechanical thresholds were measured every 2 days to assess hyperalgesic priming.
The hair on the mouse forehead (above and between the eyes) was shaved the day before testing. […] A positive response was determined by the following criteria as previously described: mouse vigorously stroked its face with the forepaw, head withdrawal from the stimulus, or head shaking. […]
Facial pain score—aversiveness to facial mechanical stimuli: To measure the aversiveness to facial mechanical stimuli, the responses of mice to individual von Frey filaments were scored based on the most aversive behavior they display: 0) no responses; 1) detection: eye squinting, facial skin crinkling and/or a small head shaking; 2) withdrawal: head withdrawal from the filament and/or forepaw stroking of face once; 3) vigorous forepaw stroking of face 2 or more times; and 4) vigorous head shaking and/or attacking the filament.
For C57BL/6J mice, responses were measured to 0.04 gram (g), 0.07 g and 0.16 g von Frey filaments (3 applications each in ascending order). […]
Mice received intraperitoneal (i.p.) injections of NTG (10 mg/kg) or vehicle (saline with 1% propylene glycol, 10 ml/kg) once every 2 days for 5 times as described previously. Facial mechanical thresholds were measured at baseline and two days after each injection. […]

Question: Which “tibial fracture/cast immobilization-induced mechanical allodynia” value [1] does the source give for `Cc1ccc2c(c1)C1(CCN(CCc3nc(-c4ccccc4)oc3C)CC1)OC(=O)N2` [RS504393] here?
Answer: significantly attenuated tibial fracture/cast immobilization-induced mechanical allodynia

Question: What about the “NTG-induced acute or persistent facial skin hypersensitivity” value ([2]; 3 μg in 10 μl under periorbital skin, 30 minutes before and 24 hours post-NTG) of the same compound?
Answer: did not reduce NTG-induced acute or persistent facial skin hypersensitivity

Question: What about the “facial mechanical threshold (NTG-induced persistent facial skin hypersensitivity)” value ([2]; 3 mg/kg i.p., 8 daily injections started after established hypersensitivity, day 5-11) of the same compound?
Answer: returned to basal level after 2 days of RS504393 treatment

Question: What about the “hyperalgesic priming (low-dose NTG-induced facial skin hypersensitivity)” value ([2]; 3 mg/kg i.p., 8 daily injections, low-dose NTG day 20-28) of the same compound?
Answer: low-dose NTG injections still produced robust facial skin hypersensitivity
